According to US8450272B2, “Combinations of somatostatin-analogs with different selectivity for human somatostatin receptor subtypes” (priority 2006, dated 2013):
Numbered stars: 1 amine (or outer) side, 2 acyl side, 3 side chain; on linkers, the order of the positions; unused ones are H or OH. Square brackets hold non-standard residues; d marks the D form. Side chains are listed from the residue outwards. Peptide text beside a SMILES is read from it. * marks the point of attachment. ξ: configuration not given here. Ethylenediamine = C(CN[*:2])N[*:1]; Hyp = O=C(O)[C@@H]1C[C@@H](O)CN1; ξPhg = NC(C(=O)O)c1ccccc1; CO = O=C([*:1])[*:2]; Bn = c1ccc(C*)cc1

Key:
[1] = Long-term s.c. infusion by osmotic minipumps, plasma glucose concentration; assay type: in vivo, adult male Lewis rats; conditions: 3 and 10 μg/kg/h alone, rats
Protocol: Effect of long term application of octreotide and pasireotide alone and in combination on plasma glucose concentration in rats. Compounds were continuously infused by osmotic minipumps at 3 and 10 μg/kg/h for the single compounds and at 1.5, 5 and 10 μg/kg/h for the combinations. Plasma glucose levels were determined one day before and 1, 7 and 14 days after minipumps implantation.
In the long-term experiments octreotide and pasireotide and their combination were s.c. infused in rats using osmotic minipumps (Alzet model: 2002). Blood samples were taken by sublingual bleeding on the day before minipump implantation and after 1, 7 and 14 days.

[2] = Short term experiment: acute s.c. injection, blood glucose AUC; assay type: in vivo, adult male Lewis rats; conditions: 10 μg/kg s.c., rats, within 1 hour after injection
Protocol: Effect of an acute s.c. injection of octreotide and pasireotide in rats (1 and 10 μg/kg) and different combinations thereof on the accumulated glucose levels between 0 and 1 hour after the injection (n=6 animals per group).
In the short term experiment octreotide and pasireotide and their combination were s.c. injected in rats in 1 ml saline. Blood samples were taken by sublingual bleeding the rats 15 min, 30 min, 1 h, 3 h, 6 h and 8 h after the injection and blood glucose was determined using ACCU-Chek Compact (Roche), which was newly calibrated before each measurement. In order to determine the overall effect of the treatment on glucose the area under the curve (AUC) was determined using GraphPad Prizm. 4.0.

[3] = in vivo; cited from earlier work
[4] = Previous experiments: glucose increase after pasireotide injection; assay type: in vivo; conditions: rats
Protocol: Based on previous experiments in rats it was known that acute injection of pasireotide causes an increase in glucose, which was rapid in onset (within 30 min after injection), reached its peak between 1 and 3 h and returned to baseline values after 6-8 h. […] Therefore only moderate increases in glucose have been observed after repeated or long-term treatment with pasireotide mainly on the first day(s) of treatment. […] In order to investigate the efficacy of both compounds and their combination on a relevant parameter in rats plasma GH and IGF-1 levels as well as body weight were determined in rats within 14 days of continuous infusion with the compounds. […] Due to the known pulsatile release pattern of GH and the low sensitivity of the available GH RIA, levels of IGF-1 and body weight (BW) are more reliable parameters to determine efficacy of a compound on the GH/IGF-1 system. GH and IGF-1 are both growth factors which are responsible for growth of animals and humans and lack of these factors result in growth retardation in animals which are still growing (like in rats). […] Unlike the rapid changes in glucose levels, changes in IGF-1 levels are only observed after 1-2 days of treatment with somatostatin analogues.

SMILES	plasma glucose ([1]; continuous infusion for 14 days)	change of AUC glucose levels vs. control [2]	t1/2 [3]	plasma level of glucose ([1]; continuous infusion, day 1 and 7 of treatment)	onset of increase in glucose after injection ([4]; acute injection)	return of glucose to baseline values ([4]; acute injection)	glucose response on repeated or long term injections ([4]; repeated or long term injections)
C[C@@H](O)[C@@H]1NC(=O)[C@H](CCCCN)NC(=O)[C@@H](Cc2c[nH]c3ccccc23)NC(=O)[C@H](Cc2ccccc2)NC(=O)[C@@H](NC(=O)[C@H](N)Cc2ccccc2)CSSC[C@@H](C(=O)N[C@H](CO)[C@@H](C)O)NC1=O [octreotide]	no effect or caused a small but significant reduction	no effect					
NCCCC[C@@H]1NC(=O)[C@@H](Cc2c[nH]c3ccccc23)NC(=O)C(c2ccccc2)NC(=O)[C@@H]2C[C@@H](OC(=O)NCCN)CN2C(=O)[C@H](Cc2ccccc2)NC(=O)[C@H](Cc2ccc(OCc3ccccc3)cc2)NC1=O (stereo partly drawn) [pasireotide, cyclo[{4-(NH2—C2H4—NH—CO—O—)Pro}-Phg-DTrp-Lys-Tyr(4-Bzl)-Phe]] (cyclo(F[Hyp]([CO-Ethylenediamine])[ξPhg][dW]KY(Bn)))		56%	11 h	slightly, but significantly increased	≤ 30 min	6 to 8 h	strong tachyphylaxis
